The values that follow come from PubChem BioAssay (NCI).

Test systems include ACHN renal; UO-31 renal; CAKI-1 renal; RXF 393 renal; HOP-92 NSCLC; SNB-75 CNS; K-562 leukemia; DU-145 prostate; MDA-MB-231 breast; LOX IMVI melanoma.
Experiment in all cases: NCI anticancer screen, dose series, 48 h

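Assay format: 96-well plates, 48-hour exposure. Abbreviation: GI50, concentration required for 50% inhibition of growth. TGI denotes the concentration required for complete inhibition of growth.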

Consider `CCC(=O)C12OC3OC(C)(C)OC3C1OC(C)(C)O2` (configuration not stated), for which the TGI with ACHN renal, in the experiment on UO-31 renal, in the experiment on CAKI-1 renal, in the experiment with RXF 393 renal, in the experiment with HOP-92 NSCLC and in the experiment with SNB-75 CNS was above 100 µM each time. The TGI in the experiment with K-562 leukemia was above 100 µM.

On to `O=C(/C=C/c1cc2ccccc2[nH]c1=O)/C=C/c1cc2ccccc2[nH]c1=O`, for which the GI50 in the experiment on ACHN renal was 11.2 µM; in the experiment on UO-31 renal, above 100 µM; in the experiment on CAKI-1 renal, 15.2 µM; in the experiment with DU-145 prostate, 12.3 µM; in the experiment on RXF 393 renal, 6.88 µM; in the experiment on MDA-MB-231 breast, 15.4 µM. Also, the GI50 is above 100 µM with HOP-92 NSCLC, above 26.3 µM with SNB-75 CNS and above 23.1 µM in the experiment with K-562 leukemia. The TGI is above 95.3 µM with ACHN renal; above 100 µM in the experiment with UO-31 renal; above 100 µM in the experiment with CAKI-1 renal; above 70.3 µM in the experiment on DU-145 prostate; 10.8 µM with RXF 393 renal; above 100 µM in the experiment with MDA-MB-231 breast. Further, the TGI in the experiment on HOP-92 NSCLC was above 100 µM; in the experiment on SNB-75 CNS, above 67.5 µM; with K-562 leukemia, above 100 µM.

Turning to `CC/C=C\C/C=C\C/C=C\CCCCCCCC(=O)OCC(O)CO` (configuration not stated), the TGI in the experiment on ACHN renal is above 72.5 µM; in the experiment with UO-31 renal, 24.6 µM; in the experiment on LOX IMVI melanoma, above 59.6 µM; in the experiment with CAKI-1 renal, 59.8 µM; in the experiment on RXF 393 renal, above 100 µM; in the experiment on HOP-92 NSCLC, above 100 µM. Moreover, the TGI in the experiment with SNB-75 CNS is above 100 µM; in the experiment on K-562 leukemia it was 49 µM.

Turning to `Cc1cccc(C)c1NC(=O)/C(=N/NC(N)=S)C(C)C(=O)c1ccc(Cl)cc1` (configuration not stated), the TGI in the experiment on ACHN renal, with UO-31 renal, with CAKI-1 renal, in the experiment with HOP-92 NSCLC, in the experiment on SNB-75 CNS and in the experiment with K-562 leukemia was above 100 µM throughout.

Consider `N#CC(C#N)=C1NC(=O)CC(=O)N1`, for which the TGI in the experiment on UO-31 renal, with LOX IMVI melanoma, in the experiment on CAKI-1 renal, in the experiment with RXF 393 renal, in the experiment with HOP-92 NSCLC and in the experiment on SNB-75 CNS was above 100 µM in each case. For the same compound, in the experiment on K-562 leukemia, the TGI is above 100 µM.

As for `COc1cc2nc(N3CCCC3)nc(NCCc3ccccc3)c2cc1OC`, the GI50 was 1.67 µM in the experiment with ACHN renal; 1.29 µM in the experiment on UO-31 renal; 1.66 µM with CAKI-1 renal; 2.11 µM in the experiment with DU-145 prostate; 1.28 µM with RXF 393 renal; 1.79 µM in the experiment on MDA-MB-231 breast. The GI50 was 1.48 µM in the experiment with HOP-92 NSCLC, 1.52 µM in the experiment on SNB-75 CNS and 1.81 µM in the experiment on K-562 leukemia. Besides, the TGI amounted to 3.04 µM in the experiment on ACHN renal; 2.69 µM in the experiment with UO-31 renal; 3.19 µM in the experiment on CAKI-1 renal; 5.11 µM in the experiment on DU-145 prostate; 2.76 µM in the experiment on RXF 393 renal; 3.35 µM in the experiment on MDA-MB-231 breast. The TGI with HOP-92 NSCLC was 3.16 µM; in the experiment with SNB-75 CNS it was 2.89 µM; in the experiment with K-562 leukemia, above 100 µM.

Take `Fc1ccc(C2SCc3nc4ccccc4n32)c(F)c1` (configuration not stated): the TGI was above 100 µM in the experiment on ACHN renal; above 100 µM in the experiment on UO-31 renal; above 100 µM with LOX IMVI melanoma; above 100 µM in the experiment with CAKI-1 renal; above 100 µM in the experiment with RXF 393 renal; 92.4 µM in the experiment on HOP-92 NSCLC. In addition, the TGI in the experiment on SNB-75 CNS and with K-562 leukemia was above 100 µM throughout.

For `COc1ccc(-c2nc(Nc3cc(C)[nH]n3)c3ccccc3n2)cc1`, the GI50 is 0.801 µM in the experiment with ACHN renal; 0.529 µM in the experiment with UO-31 renal; 0.52 µM with CAKI-1 renal; 3.75 µM with DU-145 prostate; 0.6 µM in the experiment with RXF 393 renal; 4.21 µM in the experiment on MDA-MB-231 breast. The GI50 was 0.621 µM in the experiment on HOP-92 NSCLC, 0.289 µM with SNB-75 CNS and 3.25 µM in the experiment on K-562 leukemia. The TGI in the experiment on ACHN renal is above 100 µM; in the experiment on UO-31 renal, 14.9 µM; with CAKI-1 renal, above 64.1 µM; in the experiment with DU-145 prostate it was above 100 µM; in the experiment with RXF 393 renal it was 2.67 µM; in the experiment with MDA-MB-231 breast, above 100 µM. Also, the TGI is 3.77 µM in the experiment on HOP-92 NSCLC, 2.27 µM in the experiment on SNB-75 CNS and above 100 µM in the experiment with K-562 leukemia.

As to `COc1cc(C(=O)C/C(CCC(=O)Nc2ccccc2[N+](=O)[O-])=N\NC(N)=O)ccc1O`, the TGI in the experiment with ACHN renal, in the experiment on UO-31 renal, with LOX IMVI melanoma, in the experiment on CAKI-1 renal, in the experiment with RXF 393 renal and with HOP-92 NSCLC was above 100 µM each time. Also, the TGI with SNB-75 CNS and in the experiment on K-562 leukemia was above 100 µM in each case.

Take `CCN(CC)CC1c2ccccc2C(CNc2ccccc2)N1C` (configuration not stated): the TGI with ACHN renal, with UO-31 renal, in the experiment with LOX IMVI melanoma, with CAKI-1 renal, in the experiment on RXF 393 renal and with HOP-92 NSCLC was above 100 µM in each case. Also, the TGI in the experiment with SNB-75 CNS and in the experiment with K-562 leukemia was above 100 µM in each case.

For the compound `C1CCC([PH+](C2CCCCC2)C2CCCCC2[PH+](C2CCCCC2)C2CCCCC2)CC1.[Au].[CH-]1CCCCC1CC1CCCC[N-]1` (configuration not stated), the GI50 in the experiment on ACHN renal was 0.902 µM; with UO-31 renal it was 1.3 µM; in the experiment on CAKI-1 renal it was 0.791 µM; in the experiment with DU-145 prostate it was 0.363 µM; in the experiment with RXF 393 renal it was 0.277 µM; in the experiment with MDA-MB-231 breast, 0.227 µM. In addition, the GI50 in the experiment on HOP-92 NSCLC is 0.212 µM; in the experiment on SNB-75 CNS, 0.23 µM; in the experiment with K-562 leukemia, 0.246 µM. Also, the TGI with ACHN renal is 2.1 µM; with UO-31 renal, 2.61 µM; in the experiment with CAKI-1 renal, 2.29 µM; in the experiment with DU-145 prostate, 2.2 µM; in the experiment on RXF 393 renal, 1.12 µM; with MDA-MB-231 breast, 0.689 µM. In addition, the TGI is 0.714 µM with HOP-92 NSCLC, 0.971 µM in the experiment on SNB-75 CNS and above 100 µM in the experiment on K-562 leukemia.

As for `CC1(O)C=CC(=O)C=C1`, the TGI with ACHN renal was above 62.8 µM; in the experiment with UO-31 renal, above 84.5 µM; with LOX IMVI melanoma, 52.5 µM; in the experiment on CAKI-1 renal, 91.5 µM; in the experiment with RXF 393 renal, 44.4 µM; in the experiment on HOP-92 NSCLC, above 100 µM. In addition, the TGI in the experiment on SNB-75 CNS and with K-562 leukemia was above 100 µM in each case.
